In US9073853B2, “Cycloalkane carboxylic acid derivatives as CXCR3 receptor antagonists” (Sanofi, priority 2011, dated 2015):

Each molecule was assayed against human CXCR3-A receptor (Homo sapiens (Human), UniProt P49682) (assay: 125I-CXCL10 competition radioligand binding assay). Settings: displacement of 125I-CXCL10 from membranes of CHO cells expressing human recombinant CXCR3-A.
Procedure, shortened: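 Membranes from a recombinant cell line expressing human CXCR3-A (10-20 μg protein) were incubated with 125I-CXCL10 and test compound for 60 min at 25° C, then filtered onto PEI-soaked GF/B filters and gamma-counted. IC50 and Hill slope came from four-parameter nonlinear fitting of competition curves.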

Sequence of human CXCR3-A receptor (P49682 whole entry): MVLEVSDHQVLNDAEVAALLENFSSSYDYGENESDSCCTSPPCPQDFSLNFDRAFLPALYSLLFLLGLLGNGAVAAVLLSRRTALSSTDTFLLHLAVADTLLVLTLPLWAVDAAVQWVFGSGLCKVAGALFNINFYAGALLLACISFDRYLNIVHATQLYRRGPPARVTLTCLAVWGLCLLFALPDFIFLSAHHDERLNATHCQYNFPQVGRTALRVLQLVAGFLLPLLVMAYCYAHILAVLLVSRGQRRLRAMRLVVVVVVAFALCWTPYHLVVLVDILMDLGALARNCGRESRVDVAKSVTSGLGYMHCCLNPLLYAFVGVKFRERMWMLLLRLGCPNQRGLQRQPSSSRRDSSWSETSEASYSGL

| Structure (SMILES) | IC50 [µM] |
| --- | --- |
| COc1cc(CN(C[C@H]2CC[C@H](C(=O)O)CC2)C2CCc3cc(Cl)c(F)cc32)ccc1OCCN1C(=O)CCC1=O (stereo partly drawn) [Example 98, trans-4-[((5-Chloro-6-fluoro-indan-1-yl)-{4-[2-(2,5-dioxo-pyrrolidin-1-yl)-ethoxy]-3-methoxy-benzyl}-amino)-methyl]-cyclohexanecarboxylic acid] | 0.155 |
| COc1cc(CN(C[C@@H]2CC[C@@H](C(=O)O)C2)[C@@H](C)c2ccc(Cl)cc2)ccc1OCCN1C(=O)CCC1=O [Example 99, (1R,3R)-3-[([(S)-1-(4-Chloro-phenyl)-ethyl]-{4-[2-(2,5-dioxo-pyrrolidin-1-yl)-ethoxy]-3-methoxy-benzyl}-amino)-methyl]-cyclopentanecarboxylic acid] | 0.223 |
| COc1cc(CN(C[C@H]2CC[C@H](C(=O)O)C2)[C@@H](C)c2ccc(Cl)cc2)ccc1OCCN1C(=O)CCC1=O [Example 100, (1S,3S)-3-[([(S)-1-(4-Chloro-phenyl)-ethyl]-{4-[2-(2,5-dioxo-pyrrolidin-1-yl)-ethoxy]-3-methoxy-benzyl}-amino)-methyl]-cyclopentanecarboxylic acid] | 0.108 |
| COc1cc(CN(C[C@H]2CC[C@@H](C(=O)O)C2)[C@@H](C)c2ccc(Cl)cc2)ccc1OCCN1C(=O)CCC1=O [Example 101, (1R,3S)-3-[([(S)-1-(4-Chloro-phenyl)-ethyl]-{4-[2-(2,5-dioxo-pyrrolidin-1-yl)-ethoxy]-3-methoxy-benzyl}-amino)-methyl]-cyclopentanecarboxylic acid] | 1.81 |
| COc1cc(CN(C[C@@H]2CC[C@H](C(=O)O)C2)[C@@H](C)c2ccc(Cl)cc2)ccc1OCCN1C(=O)CCC1=O [Example 102, (1S,3R)-3-[([(S)-1-(4-Chloro-phenyl)-ethyl]-{4-[2-(2,5-dioxo-pyrrolidin-1-yl)-ethoxy]-3-methoxy-benzyl}-amino)-methyl]-cyclopentanecarboxylic acid] | 0.154 |
| COc1cc(CN(C[C@H]2CC[C@@H](C(=O)O)C2)[C@H](C)c2ccc3c(c2)CCO3)ccc1OCCN1C(=O)CCC1=O [Example 103, (1R,3S)-3-[([(R)-1-(2,3-Dihydro-benzofuran-5-yl)-ethyl]-{4-[2-(2,5-dioxo-pyrrolidin-1-yl)-ethoxy]-3-methoxy-benzyl}-amino)-methyl]-cyclopentanecarboxylic acid] | 0.26 |
| COc1cc(CN(C[C@@H]2CC[C@@H](C(=O)O)C2)[C@H](C)c2ccc3c(c2)CCO3)ccc1OCCN1C(=O)CCC1=O [Example 104, (1R,3R)-3-[([(R)-1-(2,3-Dihydro-benzofuran-5-yl)-ethyl]-{4-[2-(2,5-dioxo-pyrrolidin-1-yl)-ethoxy]-3-methoxy-benzyl}-amino)-methyl]-cyclopentanecarboxylic acid] | 0.015 |
| COc1cc(CN(C[C@@H]2CC[C@@H](C(=O)O)C2)[C@@H](C)c2ccc3c(c2)CCO3)ccc1OCCN1C(=O)CCC1=O [Example 105, (1R,3R)-3-[([(S)-1-(2,3-Dihydro-benzofuran-5-yl)-ethyl]-{4-[2-(2,5-dioxo-pyrrolidin-1-yl)-ethoxy]-3-methoxy-benzyl}-amino)-methyl]-cyclopentanecarboxylic acid] | 0.053 |
| COc1cc(CN(C[C@@H]2CC[C@H](C(=O)O)C2)[C@@H](C)c2ccc3c(c2)CCO3)ccc1OCCN1C(=O)CCC1=O [Example 106, (1S,3R)-3-[([(S)-1-(2,3-Dihydro-benzofuran-5-yl)-ethyl]-{4-[2-(2,5-dioxo-pyrrolidin-1-yl)-ethoxy]-3-methoxy-benzyl}-amino)-methyl]-cyclopentanecarboxylic acid] | 0.144 |
| COc1cc(CN(C[C@H]2CC[C@@H](C(=O)O)C2)[C@@H](C)c2ccc3c(c2)CCO3)ccc1OCCN1C(=O)CCC1=O [Example 107, (1R,3S)-3-[([(S)-1-(2,3-Dihydro-benzofuran-5-yl)-ethyl]-{4-[2-(2,5-dioxo-pyrrolidin-1-yl)-ethoxy]-3-methoxy-benzyl}-amino)-methyl]-cyclopentanecarboxylic acid] | 5.13 |
